Data taken from US20030003114A1, “Enzyme-based anti-cancer compositions and methods” (priority 2001, published 2003).

Key:
[1] = tested on: 24 JK murine sarcoma cells; test: Syngeneic tumor model, 24 JK murine sarcoma in C57BL/6 mice; set-up: anti-tumor effectiveness: dose or concentration left out as unconfirmed
Experimental: In the case where a hexosaminidase is tested for anti-tumor activity on murine tumor cells or tissues, a syngeneic tumor model is used. In this model, tumor cells or tissues are implanted in C57BL/6 mice. As in the SCID mouse model described above, the implanted tumors are allowed to grow to a size of approximately 50 to 100 mm^3 before various amounts of the hexosaminidase are administered to the animal, by any of the means described above. The decrease in tumor size or, preferably, elimination of the tumor from the mouse, is subsequently observed.
In both the SCID and C57BL/6 models described above, the anti-tumor activity of a hexosaminidase is compared to the anti-tumor activity of a known anti-tumor agent. For example, mice containing tumors are treated with doxorubicin. A suitable dose of doxorubicin is 5 mg per kg of body weight of the mice.
A syngeneic tumor model, C57BL/6 mice carrying implanted 24 JK murine sarcoma cells, was used in these studies. The cells were injected subcutaneously into the mouse flank. Five days later, 5 units of chitinase was injected intraperitoneally (IP) into the mouse. Into another mouse was injected 5 mg doxorubicin per kilogram of mouse weight IP on days 5, 7 and 9. Into a third mouse was injected saline on day 5 (i.e., negative control).

[2] = tested on: spleen cells from a normal mouse; test: MTT dye reduction viability assay, normal cells; type: cell-based; conditions: concentrations up to 1.0 units per ml of culture medium, 3 days, FIG. 1
From the text: Different concentrations of the hexosaminidases are used. […] One method is the MTT assay.

[3] = tested on: lung cancer cells; test: Cultured tumor cells treated with chitinase, cellular damage (electron micrographs); type: cell-based, human; conditions: within hours of treatment, ultimately leading to cell death
[4] = tested on: melanoma cells; test: as above; type: cell-based, human; conditions: within hours of treatment, ultimately leading to cell death
[5] = tested on: prostate cancer LNCaP cells; test: Cultured tumor cells treated with chitinase, cellular damage; type: cell-based, human; conditions: within hours of treatment, ultimately leading to cell death
[6] = tested on: breast cancer MCF-7 cells; test: Cultured tumor cells treated with chitinase, cellular damage (electron micrographs); type: cell-based, human; conditions: within hours of treatment, ultimately leading to cell death
[7] = tested on: Moderately differentiated adenocarcinoma from human colon; test: Human colon cancer xenograft in SCID mice, tumor size; type: in vivo; conditions: 5 units injected into the tumor (day 1), FIG. 2
Experimental: (§1) The effect of hexosaminidases on survival of tumor cells is also tested by administering hexosaminidases to experimental animals that have various tumors. Preferably, the tumors are human tumors or cancer xenograft tissues and the experimental animal is a SCID mouse. Good results have been obtained by transplanting tumor cells or tissues subcutaneously in the animal or behind the fat pad of the mouse. After the tumor cells or tissues are transplanted into the animal, the tumors cells grow and divide. When the tumors reach a visible size (e.g., 0.5-0.8 cm^3) in the SCID mice, a hexosaminidase is dissolved in PBS and various amounts of the hexosaminidase are injected into the tumor (i.e., intratumor injection), injected intraperitoneally (IP) into the animal, or intravenously (IV) into the animal. Single or multiple injections are used. The size of the tumor is subsequently measured to determine the effect of the enzyme on tumor growth and survival. A decrease in size of the tumors is indicative of anti-tumor activity of the hexosaminidase. Preferably, administration of the hexosaminidase results in a significant size reduction of the tumor. […]
Moderately differentiated adenocarcinoma from human colon was obtained from patients as a biopsy sample and a 0.1 cm^3 piece of the biopsy was implanted into SCID mice. […] Subsequently, the size of the tumors was measured daily.

[8] = tested on: Moderately differentiated squamous cell carcinoma from human lung; test: Human lung cancer xenograft in SCID mice, tumor size; type: in vivo
Experimental: as §1
Moderately differentiated squamous cell carcinoma from human lung was obtained from patients as a biopsy sample and a 0.1 cm^3 piece of the biopsy was implanted into SCID mice. […] Subsequently, the size of the tumors was measured daily. […]

[9] = tested on: Poorly differentiated carcinoma from human bladder; test: Human bladder cancer xenograft in SCID mice, tumor size; type: in vivo; conditions: 5 units injected into the tumor (day 1)
Experimental: as §1
Poorly differentiated carcinoma from human bladder was obtained from patients as a biopsy sample and a 0.1 cm^3 piece of the biopsy was implanted into SCID mice. […] Subsequently, the size of the tumors was measured daily.

[10] = tested on: Malignant melanoma; test: Human malignant melanoma xenograft in SCID mice, tumor size; type: in vivo; conditions: 5 units injected into the tumor (day 1)
Experimental: as §1
Malignant melanoma was obtained from patients as a biopsy sample and a 0.1 cm^3 piece of the biopsy was implanted into SCID mice. […] Subsequently, the size of the tumors was measured daily.

[11] = tested on: fibrosarcoma; test: Human fibrosarcoma xenograft in SCID mice, tumor size; type: in vivo; conditions: 5 units injected into the tumor (day 1)
Experimental: as §1
A fibrosarcoma was obtained from patients as a biopsy sample and a 0.1 cm^3 piece of the biopsy was implanted into SCID mice. […] Subsequently, the size of the tumors was measured daily.

[12] = tested on: Adenocarcinoma from ovaries; test: Human ovarian cancer xenograft in SCID mice, tumor size; type: in vivo; conditions: 5 units injected into the tumor (day 1)
Experimental: as §1
Adenocarcinoma from ovaries was obtained from patients as a biopsy sample and a 0.1 cm^3 piece of the biopsy was implanted into SCID mice. […] Subsequently, the size of the tumors was measured daily.

[13] = tested on: Ductal carcinoma from breast; test: Human breast cancer xenograft in SCID mice, tumor size; type: in vivo; conditions: 5 units injected into the tumor (day 1)
Experimental: as §1
Ductal carcinoma from breast was obtained from patients as a biopsy sample and a 0.1 cm^3 piece of the biopsy was implanted into SCID mice. […] Subsequently, the size of the tumors was measured daily.

[14] = tested on: Merkel cell cancer (neuroendocrine skin cancer); test: Merkel cell cancer xenograft in SCID mice, tumor size; type: in vivo, human; conditions: 5 units injected into the tumor (day 1)
Experimental: as §1
Merkel cell cancer (neuroendocrine skin cancer) was obtained from patients as a biopsy sample and a 0.1 cm^3 piece of the biopsy was implanted into SCID mice. […] Subsequently, the size of the tumors was measured daily.

[15] = tested on: Moderately differentiated adenocarcinoma from prostate; test: Human prostate cancer xenograft in SCID mice, tumor size; type: in vivo; conditions: 5 units injected into the tumor (day 1), FIG. 2
Experimental: as §1
Moderately differentiated adenocarcinoma from prostate was obtained from patients as a biopsy sample and a 0.1 cm^3 piece of the biopsy was implanted into SCID mice. […] Subsequently, the size of the tumors was measured daily.

[16] = tested on: Large cell lymphoma; test: Human lymphoma xenograft in SCID mice, tumor size; type: in vivo; conditions: 5 units injected into the tumor (day 1), over a period of 7 days, FIG. 2
Experimental: as §1
Large cell lymphoma was obtained from patients as a biopsy sample and a 0.1 cm^3 piece of the biopsy was implanted into SCID mice. […] Subsequently, the size of the tumors was measured daily.

[17] = tested on: LNCaP prostate cancer cells; test: LNCaP prostate cancer cell tumors in SCID mice; type: in vivo, human
Experimental: The effect of hexosaminidases on survival of tumor cells is also tested by administering hexosaminidases to experimental animals that have various tumors. Preferably, the tumors are human tumors or cancer xenograft tissues and the experimental animal is a SCID mouse. Good results have been obtained by transplanting tumor cells or tissues subcutaneously in the animal or behind the fat pad of the mouse. After the tumor cells or tissues are transplanted into the animal, the tumors cells grow and divide. When the tumors reach a visible size (e.g., 0.5-0.8 cm^3) in the SCID mice, a hexosaminidase is dissolved in PBS and various amounts of the hexosaminidase are injected into the tumor (i.e., intratumor injection), injected intraperitoneally (IP) into the animal, or intravenously (IV) into the animal. Single or multiple injections are used. The size of the tumor is subsequently measured to determine the effect of the enzyme on tumor growth and survival. A decrease in size of the tumors is indicative of anti-tumor activity of the hexosaminidase. Preferably, administration of the hexosaminidase results in a significant size reduction of the tumor. More preferably, the hexosaminidase eliminates the tumor from the SCID mouse. Preferably, such animals will remain free from tumors in the future.
One million LNCaP prostate cancer cells were injected into SCID mice. After the tumors grew to a size of between 0.3-0.6 cm^3, 5 units of Streptomyces chitinase was injected intratumorally, intraperitoneally and intravenously, in separate mice. […] All untreated animals died within 3 months.

[18] = Chitinase levels in blood of mice after different routes of administration (4-mu-chitotrioside assay of plasma); type: in vivo; conditions: mouse
Experimental: Thirty-five mg of chitinase (Sigma C-6139) was dissolved in 1.5 ml of PBS. One-half ml of the chitinase solution was injected into each of 3 mice. One mouse was injected intraperitoneally (IP), one was injected intravenously (IV), and one mouse was injected subcutaneously (SC). A fourth mouse was injected with saline as a control. At various times after injection, 15-20 μl of blood was taken from the tail vein of each mouse and immediately mixed with a sodium-EDTA solution (pH 7.4). The cells were centrifuged from the blood and 5 μl of plasma was used in a chitinase assay. In the chitinase assay, 4-methylumbelliferyl-β-D-N, N′, N″-triacetyl-chitotriose (4-mu-chitotrioside) was used as the substrate for chitinase. The plasma sample, in 100 μl of saline, was mixed with 100 μl of 22 μM 4-mu-chitotrioside solution in 0.2 M citric acid buffer (pH 5.2) and incubated in a 37° C. water bath for 15 min. At the end of the incubation, 3.0 ml of 0.3 M glycine buffer (pH 10.6) was added to the mixture to stop the reaction. The fluorescence of the solution at 460 nm was then measured after excitation at 355 nm.

[19] = Observation of treated mice for visible signs of systemic toxicity; type: in vivo; conditions: general statement; high chitinase levels do not appear to cause toxicity in normal tissues
From the text: Such toxicity is compared with toxicity that is present in control animals, animals administered doxorubicin for example.

[20] = tested on: human oral carcinoma KB cells; conditions: 3 days culture at 37° C., MTT, FIG. 1
Experimental: Good results have been obtained by testing the effect of hexosaminidases on the viability of cultured normal and tumor cells is tested by culturing normal cells (e.g., spleen cells from a mouse) and tumor cells (e.g., human oral carcinoma KB cells) in vitro and then adding various concentrations of the hexosaminidase to the cells. Different concentrations of the hexosaminidases are used. At various times after addition of the hexosaminidase, the viability of the cells is determined using one of a variety of methods. One method is the MTT assay. In this assay, cells are exposed to MTT, 3-(4,5-dimethylthiazol-2-yl)2,5-diphenyltetrazolium bromide, which is taken into the cells and reduced by mitochondrial dehydrogenase to a purple formazan, a large molecule which is unable to pass through intact cell membranes, and therefore accumulates in healthy cells. The ability of cells to reduce MTT is an indication of mitochondrial integrity and activity, which is interpreted as a measure of viability.
Fifty thousand spleen cells from a normal mouse, or human oral carcinoma KB cells were cultured. […] This product was dissolved in a solvent (95% ethanol:DMSO; 1:1), added to the cells and the absorbance (540 nm) was determined. The absorbance of the formazan is linearly proportional to the number of viable cells in the culture.

[21] = 5 units intratumorally, intraperitoneally and intravenously, in separate mice

COc1cccc2c1C(=O)c1c(O)c3c(c(O)c1C2=O)C[C@@](O)(C(=O)CO)C[C@@H]3O[C@H]1C[C@H](N)[C@H](O)[C@H](C)O1 [doxorubicin, reference compound]
anti-tumor effectiveness [1]: generally ineffective | outcome of mice evaluated ([1]; 5 mg per kilogram IP on days 5, 7 and 9): eventually died from drug toxicity or progressive tumor growth | course of tumor growth ([1]; 3 intraperitoneal injections of 5 mg/kg (maximum tolerated dose)): growth attenuation followed by a resumption of progressive growth

chitinase
effect on the viability of the normal mouse spleen cells [2]: little effect | cellular damage after chitinase treatment [3]: significant cellular damage | cellular damage after chitinase treatment [4]: significant cellular damage | cellular damage after chitinase treatment [5]: significant cellular damage | cellular damage after chitinase treatment [6]: significant cellular damage | period over which human colon cancer was effectively eliminated from the animals [7]: 2 days | elimination of lung tumors compared with human colon cancer of Example 2 ([8]; 5 units injected into the tumor (day 1), SCID mice): as effectively eliminated | tumor size after chitinase treatment ([8]; 10 days after a single injection of 5 units, FIG. 3b): substantially reduced in size | elimination of bladder tumors compared with human colon cancer of Example 2 [9]: as effectively eliminated | elimination of melanomas compared with human colon cancer of Example 2 [10]: as effectively eliminated | elimination of fibrosarcomas compared with human colon cancer of Example 2 [11]: as effectively eliminated | elimination of ovarian tumors compared with human colon cancer of Example 2 [12]: as effectively eliminated | elimination of breast tumors compared with human colon cancer of Example 2 [13]: as effectively eliminated | elimination of Merkel cell tumors [14]: eliminated | period over which prostate tumors were eliminated from the mouse [15]: 7 days | change of lymphoma size [16]: reduced in size | histological staining of tumors compared to saline control tumors [17, 21]: extensive cellular damage and morphological changes | time after injection at which tumor necrosis was visible [17, 21]: within hours | tumor regression [17, 21]: complete tumor regression | survival of treated animals without tumor recurrence ([17]; 5 units, all untreated animals died within 3 months): more than one year | development of resistance of the tumors to the enzyme ([17]; additional studies): no indication of development of resistance | tumor elimination with an additional administration of chitinase after the first ([17]; additional studies): more rapidly eliminated | dose dependence of anti-tumor activity ([1]; additional studies, increased with increasing dosages): dose dependent | regression of established tumors ([1]; intraperitoneal injection of 5 Units on day 5 and day 6): complete tumor regression | day until after which detectable growth of 24 JK sarcoma tumor cells was inhibited ([1]; single IP injection of 5 units five days after cell injection, FIG. 5): > 12 days | regression of established tumors ([1]; single intraperitoneal injection of 10 Units on day 5): complete tumor regression | maximum blood levels relative to those found in IV injection ([18]; IP injection): less than half | time at which maximum blood levels were reached ([18]; IP injection): 2 to 3 min | time until which blood levels tapered off ([18]; IP injection): 40 min | time until which maximum levels remained ([18]; IP injection): 7 to 8 min | time at which little chitinase was left in the blood ([18]; IV injection): 20 min | levels of chitinase in the blood immediately after injection ([18]; IV injection, within 1 min.): very high levels | maximum blood levels relative to blood levels found after IP injection ([18]; SC injection): a third | time at which maximum blood levels were reached ([18]; SC injection): 2 to 3 min | time until which blood levels tapered off ([18]; SC injection): 40 min | systemic toxicity [19]: without significant systemic toxicity | concentrations at which chitinase efficiently kills the tumor cells [20]: 0.025 to 0.05 units of chitinase per ml of culture medium
